# Data as given in the OPERA property sets (Mansouri et al. 2018).
row,Compound,logP
1,COC(=O)CS(=O)c1ccccc1[N+](=O)[O-] (configuration not stated),0.74
2,COC(=O)CS(=O)c1ccc(Cl)cc1[N+](=O)[O-] (configuration not stated),1.29
3,CC(C)OC(=O)CS(=O)c1ccc([N+](=O)[O-])cc1 (configuration not stated),1.64
4,CC(C)OC(=O)CSc1ccccc1[N+](=O)[O-],2.76
5,COC(=O)CS(=O)c1ccc([N+](=O)[O-])cc1 (configuration not stated),0.8
6,CC(C)OC(=O)CS(=O)c1ccc(Cl)cc1[N+](=O)[O-] (configuration not stated),2.22
7,COC(=O)CS(=O)(=O)c1ccc([N+](=O)[O-])cc1,0.78
8,CC(C)OC(=O)CS(=O)(=O)c1ccc([N+](=O)[O-])cc1Cl,2.4
9,COC(=O)CS(=O)(=O)c1ccccc1[N+](=O)[O-],0.78
10,CC(C)OC(=O)CS(=O)(=O)c1ccc([N+](=O)[O-])cc1,1.8
11,COC(=O)CS(=O)(=O)c1ccc(Cl)cc1[N+](=O)[O-],1.3
12,CC(C)OC(=O)CS(=O)(=O)c1ccccc1[N+](=O)[O-],1.72
13,CC(C)OC(=O)CS(=O)(=O)c1ccc(Cl)cc1[N+](=O)[O-],2.45
14,CC(C)OC(=O)CS(=O)c1ccc([N+](=O)[O-])cc1[N+](=O)[O-] (configuration not stated),1.61
15,CC(C)OC(=O)CS(=O)c1ccccc1[N+](=O)[O-] (configuration not stated),1.59
16,COC(=O)CS(=O)c1ccc([N+](=O)[O-])cc1[N+](=O)[O-] (configuration not stated),0.63
17,CC(C)OC(=O)CSc1ccc([N+](=O)[O-])cc1,2.79

# Results, then the compound that gave them:
row,logP,Compound
1,3.2,CC(C)OC(=O)CSc1ccc([N+](=O)[O-])cc1Cl
2,1.45,COC(=O)CS(=O)(=O)c1ccc([N+](=O)[O-])cc1Cl
3,2.05,COC(=O)CSc1ccc([N+](=O)[O-])cc1[N+](=O)[O-]
4,1.88,COC(=O)CSc1ccccc1[N+](=O)[O-]
5,2.24,COC(=O)CSc1ccc(Cl)cc1[N+](=O)[O-]
6,2.81,CC(C)OC(=O)CSc1ccc([N+](=O)[O-])cc1[N+](=O)[O-]
7,2.01,CC(C)OC(=O)CS(=O)c1ccc([N+](=O)[O-])cc1Cl (configuration not stated)
8,3,CC(C)OC(=O)CSc1ccc(Cl)cc1[N+](=O)[O-]
9,2.26,COC(=O)CSc1ccc([N+](=O)[O-])cc1Cl
10,1.35,COC(=O)CS(=O)c1ccc([N+](=O)[O-])cc1Cl (configuration not stated)
